# US9365522B2, “Pyrazole amide derivative” (AMGEN INC., priority 2015, dated 2016)
# Target: T1, ligand binding domain of human ROR gamma (Homo sapiens, UniProt P51449)
# T1 construct: NM_001001523; expressed in transfected cells; host or cells: HEK293T
# T1 sequence (P51449 247-497 isoform P51449-2): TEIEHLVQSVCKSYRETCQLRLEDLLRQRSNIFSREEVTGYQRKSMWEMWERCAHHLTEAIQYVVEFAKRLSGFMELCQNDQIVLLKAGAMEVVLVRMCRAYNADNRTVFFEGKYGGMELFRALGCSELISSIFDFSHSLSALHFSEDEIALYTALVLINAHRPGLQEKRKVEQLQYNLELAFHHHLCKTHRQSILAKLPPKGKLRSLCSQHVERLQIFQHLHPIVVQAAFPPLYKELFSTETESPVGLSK
# Experiment: ROR gamma reporter gene assay (GAL4-RORγ LBD luciferase, Dual-Glo)
# Format: cell-based
# Settings: HEK293T cells transfected with pM-ROR gamma, 8 concentrations 3.5 nM to 10.5 μM, 24 h incubation; read-out: result (pIC50, inhibition of RORγ transcriptional activity) (converted)
# In short: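 HEK293T cells co-transfected with GAL4-DBD fused to human RORγ LBD (aa 247-497), 5×UAS firefly luciferase reporter and CMV-renilla, in charcoal-stripped serum.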
row,IC50 [pM],Structure (SMILES)
1,12300,"CC1(C)[C@@H]2C[C@H](N(CC(=O)c3c(F)cncc3Cl)C(=O)c3cnn(C45CCC(C(=O)O)(CC4)CC5)c3C(F)(F)F)C[C@@H]21 [Example 335, 4-(4-((2-(3-chloro-5-fluoropyridin-4-yl)-2-oxoethyl)((1R,3r,5S)-6,6-dimethylbicyclo[3.1.0]hexan-3-yl)carbamoyl)-5-(trifluoromethyl)-1H-pyrazol-1-yl)bicyclo(2.2.2)octane-1-carboxylic acid]"
2,> 1e+07,"Cn1nc(Cl)c(C(=O)CN(Cc2cc(F)cc(F)c2)C(=O)c2cnn([C@H]3CC[C@H](C(=O)O)CC3)c2C(F)(F)F)c1Cl [Example 201, trans-4-(4-((2-(3,5-dichloro-1-methylpyrazol-4-yl)-2-oxoethyl)-((3,5-difluorophenyl)methyl)carbamoyl)-5-(trifluoromethyl)pyrazol-1-yl)cyclohexane-1-carboxylic acid]"
3,18600,"O=C(CN(CC1CCC2(CC1)CC2)C(=O)c1cnn([C@H]2CC[C@H](C(=O)O)CC2)c1C(F)(F)F)c1c(Cl)cncc1Cl [Example 37, trans-4-(4-((2-(3,5-dichloropyridin-4-yl)-2-oxoethyl)(spiro[2.5]octan-6-ylmethyl)carbamoyl)-5-(trifluoromethyl)-1H-pyrazol-1-yl)cyclohexanecarboxylic acid]"
4,437000,"CC(CN(C(=O)c1cnn([C@H]2CC[C@](C)(C(=O)O)CC2)c1C(F)(F)F)[C@H]1C[C@@H]2[C@H](C1)C2(C)C)c1c[nH]c2cccc(Cl)c12 (stereo partly drawn) [Example 377, trans-4-(4-((2-(4-chloro-1H-indol-3-yl)propyl)((1R,3r,5S)-6,6-dimethylbicyclo[3.1.0]hexan-3-yl)carbamoyl)-5-(trifluoromethyl)-1H-pyrazol-1-yl)-1-methylcyclohexanecarboxylic acid]"
5,< 3470,"CC1(C)CCC(CN(CC(=O)c2c(Cl)cc(Cl)cc2Cl)C(=O)c2cnn([C@H]3CC[C@](C)(C(=O)O)CC3)c2C(F)(F)F)CC1 [Example 239, trans-4-(4-((4,4-dimethylcyclohexyl)methyl-(2-oxo-2-(2,4,6-trichlorophenyl)ethyl)carbamoyl)-5-(trifluoromethyl)pyrazol-1-yl)-1-methylcyclohexane-1-carboxylic acid]"
6,39800,"CC1(C)[C@@H]2C[C@H](N(C[C@H](O)c3c(F)cncc3Cl)C(=O)c3cnn([C@H]4CC[C@](C)(C(=O)O)CC4)c3C(F)(F)F)C[C@@H]21 [Example 383, trans-4-(4-((2-(3-chloro-5-fluoropyridin-4-yl)-2-hydroxyethyl)((1R,3r,5S)-6,6-dimethylbicyclo[3.1.0]hexan-3-yl)carbamoyl)-5-(trifluoromethyl)-1H-pyrazol-1-yl)-1-methylcyclohexanecarboxylic acid]"
7,4.07e+06,"O=C(CN(Cc1cc(F)cc(F)c1)C(=O)c1cnn([C@H]2CC[C@H](C(=O)O)CC2)c1C(F)(F)F)c1c(F)cncc1F [Example 51, trans-4-(4-((3,5-difluorobenzyl)(2-(3,5-difluoropyridin-4-yl)-2-oxoethyl)carbamoyl)-5-(trifluoromethyl)-1H-pyrazol-1-yl)cyclohexanecarboxylic acid]"
8,8910,"O=C(CN(Cc1cc(F)cc(F)c1)C(=O)c1cnn([C@H]2CC[C@H](C(=O)O)CC2)c1C(F)(F)F)c1c(Cl)cc(F)cc1Cl [Example 55, trans-4-(4-((2-(2,6-dichloro-4-fluorophenyl)-2-oxoethyl)(3,5-difluorobenzyl)carbamoyl)-5-(trifluoromethyl)-1H-pyrazol-1-yl)cyclohexanecarboxylic acid]"
9,4570,"Cc1cc(Cl)c(C(=O)CN(CC23CCC(C)(CC2)O3)C(=O)c2cnn(C34CCC(C(=O)O)(CC3)CC4)c2C(F)(F)F)c(Cl)c1 [Example 261, 4-(4-((2-(2,6-dichloro-4-methylphenyl)-2-oxoethyl)-((1-methyl-7-oxabicyclo[2.2.1]heptan-4-yl)methyl)carbamoyl)-5-(trifluoromethyl)pyrazol-1-yl)bicyclo[2.2.2]octane-1-carboxylic acid]"
10,32400,"CC1(C)[C@@H]2C[C@H](N(CC(=O)c3c(Cl)cccc3C(F)(F)F)C(=O)c3cnn(C45CCC(C(=O)O)(CC4)CC5)c3C(F)(F)F)C[C@@H]21 [Example 247, 4-(4-((2-(2-chloro-6-(trifluoromethyl)phenyl)-2-oxoethyl)-((1R,3r,5S)-6,6-dimethyl-3-bicyclo[3.1.0]hexanyl)carbamoyl)-5-(trifluoromethyl)pyrazol-1-yl)bicyclo[2.2.2]octane-1-carboxylic acid]"
11,7240,"C[C@]1(C(=O)O)CC[C@H](n2ncc(C(=O)N(Cc3cc(F)cc(F)c3)C[C@H](F)c3c(Cl)cccc3Cl)c2C(F)(F)F)CC1 [Example 138, trans-4-(4-(((2R)-2-(2,6-dichlorophenyl)-2-fluoroethyl)-((3,5-difluorophenyl)methyl)carbamoyl)-5-(trifluoromethyl)pyrazol-1-yl)-1-methylcyclohexane-1-carboxylic acid]"
12,631000,"COC(CN(Cc1cc(F)cc(F)c1)C(=O)c1cnn([C@H]2CC[C@H](C(=O)O)CC2)c1C(F)(F)F)c1c(Cl)cncc1Cl (stereo partly drawn) [Example 109, trans-4-(4-((2-(3,5-dichloropyridin-4-yl)-2-methoxyethyl)-((3,5-difluorophenyl)methyl)carbamoyl)-5-(trifluoromethyl)pyrazol-1-yl)cyclohexane-1-carboxylic acid]"
13,38000,"Nc1cccc(Cl)c1C(=O)CN(Cc1cc(F)cc(F)c1)C(=O)c1cnn([C@H]2CC[C@H](C(=O)O)CC2)c1C(F)(F)F [Example 11, trans-4-(4-((2-(2-amino-6-chlorophenyl)-2-oxoethyl)(3,5-difluorobenzyl)carbamoyl)-5-(trifluoromethyl)-1H-pyrazol-1-yl)cyclohexanecarboxylic acid]"
14,< 3470,"CC1(C)CC(CN(CC(=O)c2c(Cl)cc(F)cc2Cl)C(=O)c2cnn([C@H]3CC[C@](C)(C(=O)O)CC3)c2C(F)(F)F)C1 [Example 249, trans-4-(4-((2-(2,6-dichloro-4-fluorophenyl)-2-oxoethyl)-((3,3-dimethylcyclobutyl)methyl)carbamoyl)-5-(trifluoromethyl)pyrazol-1-yl)-1-methylcyclohexane-1-carboxylic acid]"
15,5.89e+06,"O=C(CN(Cc1cc(F)cc(F)c1)C(=O)c1cnn([C@H]2CC[C@H](C(=O)O)CC2)c1C(F)(F)F)c1cc(Cl)cc(Cl)c1 [Example 59, trans-4-(4-((2-(3,5-dichlorophenyl)-2-oxoethyl)(3,5-difluorobenzyl)carbamoyl)-5-(trifluoromethyl)-1H-pyrazol-1-yl)cyclohexanecarboxylic acid]"
16,603000,"O=C(CN(C(=O)c1cnn([C@H]2CC[C@H](C(=O)O)CC2)c1C(F)(F)F)C1CCC(F)(F)CC1)c1c(Cl)cncc1Cl [Example 175, trans-4-(4-((2-(3,5-dichloropyridin-4-yl)-2-oxoethyl)-(4,4-difluorocyclohexyl)carbamoyl)-5-(trifluoromethyl)pyrazol-1-yl)cyclohexane-1-carboxylic acid]"
17,24000,"O=C(CN(Cc1ccc(F)cc1)C(=O)c1cnn([C@H]2CC[C@H](C(=O)O)CC2)c1C(F)(F)F)c1c(Cl)cncc1Cl [Example 1, trans-4-(4-((2-(3,5-dichloropyridin-4-yl)-2-oxoethyl)(4-fluorobenzyl)carbamoyl)-5-(trifluoromethyl)-1H-pyrazol-1-yl)cyclohexanecarboxylic acid]"
18,162000,"C[S+](=O)([O-])[C@H]1CC[C@@H](n2ncc(C(=O)N(CC(=O)c3c(Cl)cncc3Cl)Cc3ccc(F)cc3)c2C(F)(F)F)CC1 [Example 86, N-(2-(3,5-dichloropyridin-4-yl)-2-oxoethyl)-N-(4-fluorobenzyl)-1-(cis-4-(methylsulfonyl)cyclohexyl)-5-(trifluoromethyl)-1H-pyrazole-4-carboxamide]"
19,47900,"CC(C)(C)OCCN(CC(=O)c1c(Cl)cc(F)cc1Cl)C(=O)c1cnn([C@H]2CC[C@](C)(C(=O)O)CC2)c1C(F)(F)F [Example 292, trans-4-(4-((2-(2,6-dichloro-4-fluorophenyl)-2-oxoethyl)-(2-((2-methylpropan-2-yl)oxy)ethyl)carbamoyl)-5-(trifluoromethyl)pyrazol-1-yl)-1-methylcyclohexane-1-carboxylic acid]"
20,81300,"CC(C)CCN(CC(=O)c1c(Cl)cncc1Cl)C(=O)c1cnn([C@H]2CC[C@H](C(=O)O)CC2)c1C(F)(F)F [Example 32, trans-4-(4-((2-(3,5-dichloropyridin-4-yl)-2-oxoethyl)(isopentyl)carbamoyl)-5-(trifluorornethyl)-1H-pyrazol-1-yl)cyclohexanecarboxylic acid]"
21,162000,"CC1(C)CC[C@H](N(CC(=O)c2c(Cl)cncc2Cl)C(=O)c2cnn([C@H]3CC[C@H](C(=O)O)CC3)c2C(F)(F)F)C1 [Example 184, trans-4-(4-((2-(3,5-dichloropyridin-4-yl)-2-oxoethyl)-((1S)-3,3-dimethylcyclopentyl)carbamoyl)-5-(trifluoromethyl)pyrazol-1-yl)cyclohexane-1-carboxylic acid]"
22,26300,"CC1(C)CCC(N(CC(=O)c2c(Cl)cc(F)cc2Cl)C(=O)c2cnn([C@H]3CC[C@](C)(C(=O)O)CC3)c2Cl)CC1 [Example 345, trans-4-(5-chloro-4-((2-(2,6-dichloro-4-fluorophenyl)-2-oxoethyl)-(4,4-dimethylcyclohexyl)carbamoyl)pyrazol-1-yl)-1-methylcyclohexane-1-carboxylic acid]"
